A short description of data set [1]: Metabolic stability in rat liver microsomes assessed as compound remaining after 60 mins. Format: ADME. The note with it: read-out: Stability. In general terms: Liver microsomes are vesicles of endoplasmic reticulum, rich in cytochrome P450 enzymes.
Data set [2] is described as follows: Metabolic stability in human liver microsomes assessed as compound remaining after 60 mins. Format: ADME. The note with it: read-out: Stability.
Data set [3] concerns the target cAMP and cAMP-inhibited cGMP 3',5'-cyclic phosphodiesterase 10A (Homo sapiens, UniProt Q9Y233). Kind of data set: Inhibition of human recombinant PDE10A using [3H]-cAMP/[3H]-cGMP as substrate after 30 mins by radiometric assay.
Data set [4] in a line: Ratio of drug level in brain to plasma in Sprague-Dawley rat at 10 mg/kg, po after 30 mins. The format is ADME, organism-based. The arrangement: dose 10 mg/kg, route oral. The note with it: brain and plasma, read-out: BPR.
Data set [5] in a line: Plasma concentration in Sprague-Dawley rat at 10 mg/kg, po after 30 mins. Format: ADME, organism-based. The arrangement: dose 10 mg/kg, route oral.
Data set [6] is described as follows: Drug uptake in Sprague-Dawley rat brain at 10 mg/kg, po after 30 mins. The note with it: read-out: Drug uptake. Format: ADME, organism-based. Further details: dose 10 mg/kg, route oral.
Data set [7] is filed under the species Homo sapiens. Nature of the data set: Selectivity ratio of IC50 for PDE11A (unknown origin) to IC50 for human recombinant PDE10A.
The species named for data set [8] is Homo sapiens. Nature of the data set: Selectivity ratio of IC50 for PDE9A2 (unknown origin) to IC50 for human recombinant PDE10A.
The species named for data set [9] is Homo sapiens. Kind of data set: Selectivity ratio of IC50 for PDE8A (unknown origin) to IC50 for human recombinant PDE10A.
Data set [10] is filed under the species Homo sapiens. Nature of the data set: Selectivity ratio of IC50 for PDE7A1 (unknown origin) to IC50 for human recombinant PDE10A.
Data set [11] is filed under the species Homo sapiens. Kind of data set: Selectivity ratio of IC50 for PDE5A (unknown origin) to IC50 for human recombinant PDE10A.
Data set [12] is filed under the species Homo sapiens. Nature of the data set: Selectivity ratio of IC50 for PDE4D (unknown origin) to IC50 for human recombinant PDE10A.
Data set [13] is filed under the species Homo sapiens. Nature of the data set: Selectivity ratio of IC50 for PDE3A (unknown origin) to IC50 for human recombinant PDE10A.
Data set [14] is filed under the species Homo sapiens. Kind of data set: Selectivity ratio of IC50 for PDE2A (unknown origin) to IC50 for human recombinant PDE10A.
The species entered for data set [15] is Homo sapiens. Kind of data set: Selectivity ratio of IC50 for PDE1A (unknown origin) to IC50 for human recombinant PDE10A.
In data set [16] the target is Dual 3',5'-cyclic-AMP and -GMP phosphodiesterase 11A (Homo sapiens) (UniProt Q9HCR9). Kind of data set: Inhibition of PDE11A (unknown origin) using [3H]-cAMP as substrate at 10 uM after 30 mins by radiometric assay.
Dual 3',5'-cyclic-AMP and -GMP phosphodiesterase 11A (Homo sapiens), sequence (Q9HCR9 whole entry, looked up): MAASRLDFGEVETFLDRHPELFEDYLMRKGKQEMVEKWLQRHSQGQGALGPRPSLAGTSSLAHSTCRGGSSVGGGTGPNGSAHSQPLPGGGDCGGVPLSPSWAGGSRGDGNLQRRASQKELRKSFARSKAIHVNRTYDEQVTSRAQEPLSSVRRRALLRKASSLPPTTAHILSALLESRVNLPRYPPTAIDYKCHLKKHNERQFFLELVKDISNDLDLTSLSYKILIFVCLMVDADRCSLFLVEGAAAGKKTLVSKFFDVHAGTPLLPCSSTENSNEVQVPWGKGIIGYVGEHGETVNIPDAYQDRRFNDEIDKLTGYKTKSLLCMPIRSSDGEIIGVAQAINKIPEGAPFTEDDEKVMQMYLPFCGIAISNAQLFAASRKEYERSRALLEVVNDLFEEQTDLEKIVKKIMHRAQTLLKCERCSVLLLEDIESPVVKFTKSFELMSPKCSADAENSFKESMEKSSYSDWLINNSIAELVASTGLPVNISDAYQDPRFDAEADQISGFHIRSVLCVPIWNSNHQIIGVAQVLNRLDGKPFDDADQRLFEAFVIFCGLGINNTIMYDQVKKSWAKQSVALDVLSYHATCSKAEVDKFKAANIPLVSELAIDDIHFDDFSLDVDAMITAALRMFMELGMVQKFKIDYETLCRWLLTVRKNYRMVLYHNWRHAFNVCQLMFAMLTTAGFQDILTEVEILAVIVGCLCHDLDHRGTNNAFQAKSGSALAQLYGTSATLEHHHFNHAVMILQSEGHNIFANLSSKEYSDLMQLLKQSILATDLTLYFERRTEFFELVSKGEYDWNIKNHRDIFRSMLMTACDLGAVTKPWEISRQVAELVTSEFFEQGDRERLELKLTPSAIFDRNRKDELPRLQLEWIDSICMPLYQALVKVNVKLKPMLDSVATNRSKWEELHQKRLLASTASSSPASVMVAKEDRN
In data set [17] the target is High affinity cGMP-specific 3',5'-cyclic phosphodiesterase 9A (Homo sapiens) (UniProt O76083). Nature of the data set: Inhibition of PDE9A2 (unknown origin) using [3H]-cGMP as substrate at 10 uM after 30 mins by radiometric assay.
High affinity cGMP-specific 3',5'-cyclic phosphodiesterase 9A (Homo sapiens), sequence (O76083 whole entry): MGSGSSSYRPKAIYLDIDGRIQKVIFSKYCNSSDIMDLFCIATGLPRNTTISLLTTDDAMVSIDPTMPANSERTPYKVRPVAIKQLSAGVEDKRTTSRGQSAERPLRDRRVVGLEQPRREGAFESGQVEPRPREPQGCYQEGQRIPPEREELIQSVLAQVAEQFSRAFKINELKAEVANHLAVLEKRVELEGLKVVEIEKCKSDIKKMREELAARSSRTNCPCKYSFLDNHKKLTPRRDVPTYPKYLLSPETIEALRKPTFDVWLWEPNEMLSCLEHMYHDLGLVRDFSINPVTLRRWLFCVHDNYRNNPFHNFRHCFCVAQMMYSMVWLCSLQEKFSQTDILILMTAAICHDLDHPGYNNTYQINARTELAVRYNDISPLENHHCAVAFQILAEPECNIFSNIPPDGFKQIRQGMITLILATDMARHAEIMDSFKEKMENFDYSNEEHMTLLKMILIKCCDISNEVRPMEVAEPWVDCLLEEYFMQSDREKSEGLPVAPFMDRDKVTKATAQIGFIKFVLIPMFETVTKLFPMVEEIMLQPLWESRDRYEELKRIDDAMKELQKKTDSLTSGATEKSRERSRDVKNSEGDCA
In data set [18] the target is High affinity cAMP-specific and IBMX-insensitive 3',5'-cyclic phosphodiesterase 8A (Homo sapiens) (UniProt O60658). Nature of the data set: Inhibition of PDE8A (unknown origin) using [3H]-cAMP as substrate at 10 uM after 30 mins by radiometric assay.
High affinity cAMP-specific and IBMX-insensitive 3',5'-cyclic phosphodiesterase 8A (Homo sapiens), sequence (O60658 whole entry): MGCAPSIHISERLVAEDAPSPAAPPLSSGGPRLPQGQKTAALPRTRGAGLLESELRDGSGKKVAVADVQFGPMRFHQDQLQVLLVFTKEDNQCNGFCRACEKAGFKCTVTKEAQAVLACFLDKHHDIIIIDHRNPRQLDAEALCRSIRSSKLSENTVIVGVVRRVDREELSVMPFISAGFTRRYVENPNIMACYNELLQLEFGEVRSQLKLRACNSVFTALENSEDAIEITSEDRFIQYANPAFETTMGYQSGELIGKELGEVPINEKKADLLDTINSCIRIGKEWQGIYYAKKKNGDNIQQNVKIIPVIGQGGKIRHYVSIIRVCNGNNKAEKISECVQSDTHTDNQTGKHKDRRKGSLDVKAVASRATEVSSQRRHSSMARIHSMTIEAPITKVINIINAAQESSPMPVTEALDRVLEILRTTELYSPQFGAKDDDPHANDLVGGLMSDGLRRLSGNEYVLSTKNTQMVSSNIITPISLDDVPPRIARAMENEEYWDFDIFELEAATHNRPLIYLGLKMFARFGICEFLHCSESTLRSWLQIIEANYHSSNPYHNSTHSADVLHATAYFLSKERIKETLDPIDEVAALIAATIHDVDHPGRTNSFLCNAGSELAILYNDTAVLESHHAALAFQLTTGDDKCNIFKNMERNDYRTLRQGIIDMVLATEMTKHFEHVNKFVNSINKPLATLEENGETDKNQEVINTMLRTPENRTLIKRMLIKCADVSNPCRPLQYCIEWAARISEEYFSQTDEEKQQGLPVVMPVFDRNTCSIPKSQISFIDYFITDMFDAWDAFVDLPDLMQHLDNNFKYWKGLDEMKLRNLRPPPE
The target of data set [19] is High affinity 3',5'-cyclic-AMP phosphodiesterase 7A (Homo sapiens) (UniProt Q13946). Nature of the data set: Inhibition of PDE7A1 (unknown origin) using [3H]-cAMP as substrate at 10 uM after 30 mins by radiometric assay.
High affinity 3',5'-cyclic-AMP phosphodiesterase 7A (Homo sapiens), sequence (Q13946 whole entry): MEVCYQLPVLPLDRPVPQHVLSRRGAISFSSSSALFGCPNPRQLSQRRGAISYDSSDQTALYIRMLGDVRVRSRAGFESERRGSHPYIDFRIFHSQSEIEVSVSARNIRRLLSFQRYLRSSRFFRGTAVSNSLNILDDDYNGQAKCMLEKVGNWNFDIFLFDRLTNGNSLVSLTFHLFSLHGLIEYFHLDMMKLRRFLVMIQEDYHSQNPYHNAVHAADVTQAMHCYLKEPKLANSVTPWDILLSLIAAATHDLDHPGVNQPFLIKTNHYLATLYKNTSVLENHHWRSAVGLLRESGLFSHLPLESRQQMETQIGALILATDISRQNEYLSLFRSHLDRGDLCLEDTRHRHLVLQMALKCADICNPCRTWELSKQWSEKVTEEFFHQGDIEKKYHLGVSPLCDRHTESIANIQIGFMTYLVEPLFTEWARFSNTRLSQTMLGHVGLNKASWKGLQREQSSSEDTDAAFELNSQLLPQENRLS
The target in data set [20] is cGMP-specific 3',5'-cyclic phosphodiesterase (Homo sapiens) (UniProt O76074). Nature of the data set: Inhibition of PDE5A (unknown origin) using [3H]-cGMP as substrate at 10 uM after 30 mins by radiometric assay.
Data set [21] deals with 3',5'-cyclic-AMP phosphodiesterase 4D (Homo sapiens) (UniProt Q08499). Kind of data set: Inhibition of PDE4D (unknown origin) using cAMP as substrate at 10 uM after 30 mins.
Data set [22] deals with cGMP-inhibited 3',5'-cyclic phosphodiesterase 3A (Homo sapiens) (UniProt Q14432). Nature of the data set: Inhibition of PDE3A (unknown origin) using cAMP as substrate at 10 uM after 30 mins by HTRF method. A general note: TR-FRET usually uses a lanthanide donor and a delayed reading to cut background.
cGMP-inhibited 3',5'-cyclic phosphodiesterase 3A (Homo sapiens), sequence (Q14432 whole entry): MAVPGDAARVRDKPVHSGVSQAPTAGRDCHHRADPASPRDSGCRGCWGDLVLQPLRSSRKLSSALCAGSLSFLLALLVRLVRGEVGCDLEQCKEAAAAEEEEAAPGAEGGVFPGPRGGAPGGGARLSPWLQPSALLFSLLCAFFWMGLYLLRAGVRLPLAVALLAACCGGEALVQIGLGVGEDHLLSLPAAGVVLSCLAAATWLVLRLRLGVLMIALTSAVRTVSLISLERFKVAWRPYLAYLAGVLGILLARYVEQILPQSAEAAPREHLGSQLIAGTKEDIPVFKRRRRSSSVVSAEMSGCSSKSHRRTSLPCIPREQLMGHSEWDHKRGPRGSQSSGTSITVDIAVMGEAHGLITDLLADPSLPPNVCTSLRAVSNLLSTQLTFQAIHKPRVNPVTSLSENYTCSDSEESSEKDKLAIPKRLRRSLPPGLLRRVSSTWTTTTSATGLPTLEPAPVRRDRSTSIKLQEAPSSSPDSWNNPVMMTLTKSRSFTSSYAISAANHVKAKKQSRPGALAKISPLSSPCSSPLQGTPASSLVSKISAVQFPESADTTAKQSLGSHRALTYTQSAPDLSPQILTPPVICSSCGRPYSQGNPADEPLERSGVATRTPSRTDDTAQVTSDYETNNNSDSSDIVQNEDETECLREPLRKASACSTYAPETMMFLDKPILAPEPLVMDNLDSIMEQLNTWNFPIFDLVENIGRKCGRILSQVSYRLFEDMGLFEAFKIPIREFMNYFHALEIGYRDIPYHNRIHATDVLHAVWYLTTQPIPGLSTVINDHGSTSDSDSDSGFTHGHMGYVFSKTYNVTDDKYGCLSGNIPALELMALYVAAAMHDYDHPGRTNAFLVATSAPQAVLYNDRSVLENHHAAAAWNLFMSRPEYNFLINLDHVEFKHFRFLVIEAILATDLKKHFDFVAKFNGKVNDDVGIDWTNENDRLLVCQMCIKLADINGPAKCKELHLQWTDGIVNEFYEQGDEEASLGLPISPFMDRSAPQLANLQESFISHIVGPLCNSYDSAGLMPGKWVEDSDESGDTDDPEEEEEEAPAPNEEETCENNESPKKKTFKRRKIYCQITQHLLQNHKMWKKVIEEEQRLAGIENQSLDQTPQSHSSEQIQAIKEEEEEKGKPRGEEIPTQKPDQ
For data set [23], the target named is cGMP-dependent 3',5'-cyclic phosphodiesterase (Homo sapiens) (UniProt O00408). Kind of data set: Inhibition of PDE2A (unknown origin) using cAMP as substrate at 10 uM after 30 mins by HTRF method.
A further data set relates to Rattus norvegicus. Kind of data set: Antipsychotic activity in Sprague-Dawley rat psychosis model assessed as inhibition of MK-801-induced hyperlocomotion at 1 mg/kg, ip administered 5 mins prior to MK-801-challenge measured after 15 mins up to 1 hr. Format: functional. The note with it: route intraperitoneal.

The term IC50 denotes the concentration needed to halve the response being measured. One may read the inhibition as the change of the read-out against control, counted positive when it falls. A higher inhibition goes with a response far below the control. One may read the inhibition in vivo as the percentage by which the read-out fell short of the control.

cAMP and cAMP-inhibited cGMP 3',5'-cyclic phosphodiesterase 10A, sequence (Q9Y233 whole entry): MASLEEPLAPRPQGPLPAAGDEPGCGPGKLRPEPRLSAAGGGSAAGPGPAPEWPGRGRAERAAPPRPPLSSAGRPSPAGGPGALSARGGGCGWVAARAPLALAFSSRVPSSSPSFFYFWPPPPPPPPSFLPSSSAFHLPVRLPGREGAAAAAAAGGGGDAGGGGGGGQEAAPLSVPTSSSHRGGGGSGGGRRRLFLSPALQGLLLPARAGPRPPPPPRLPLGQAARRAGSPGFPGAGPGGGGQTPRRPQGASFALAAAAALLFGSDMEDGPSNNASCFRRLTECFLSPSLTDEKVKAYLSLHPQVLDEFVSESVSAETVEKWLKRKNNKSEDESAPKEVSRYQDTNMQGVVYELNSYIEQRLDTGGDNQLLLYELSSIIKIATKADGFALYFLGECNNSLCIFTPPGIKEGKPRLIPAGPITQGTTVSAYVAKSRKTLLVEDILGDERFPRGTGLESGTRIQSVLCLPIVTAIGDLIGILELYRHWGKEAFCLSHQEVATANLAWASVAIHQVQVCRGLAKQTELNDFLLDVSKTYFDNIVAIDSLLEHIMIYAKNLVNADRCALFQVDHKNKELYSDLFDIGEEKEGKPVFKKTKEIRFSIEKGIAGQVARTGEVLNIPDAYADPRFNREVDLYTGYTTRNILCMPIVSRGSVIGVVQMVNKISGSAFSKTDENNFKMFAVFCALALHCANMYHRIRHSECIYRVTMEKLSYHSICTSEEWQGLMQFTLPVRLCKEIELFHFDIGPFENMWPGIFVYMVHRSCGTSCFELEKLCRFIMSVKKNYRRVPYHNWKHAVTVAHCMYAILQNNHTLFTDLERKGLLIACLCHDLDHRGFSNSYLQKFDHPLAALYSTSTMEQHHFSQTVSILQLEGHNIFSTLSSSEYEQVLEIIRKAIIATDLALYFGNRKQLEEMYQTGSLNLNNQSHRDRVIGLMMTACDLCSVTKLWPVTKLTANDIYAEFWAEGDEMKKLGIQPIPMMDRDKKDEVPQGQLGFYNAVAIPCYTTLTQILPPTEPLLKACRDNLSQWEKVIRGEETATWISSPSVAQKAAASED

Consider `Cc1nc(C)c(-c2nc(C)c3sc4cc(OCc5ccc6ccccc6n5)ccc4n23)s1`, for which the remaining at 1 h in [1] turned out to be 20%; in [2], 3%. Moreover, the IC50 in data set [3] came out at 0.9 nM.
With `CC(=O)N1CC(c2nc(C)c3sc4cc(OCc5ccc6ccccc6n5)ccc4n23)C1`, in [4], the Kp at 0.5 h stood at 0.45. Besides, the concentration at 0.5 h in data set [5] was 137 ng/mL; in data set [6], 62 ng/g. For the same compound, the remaining at 1 h in data set [1] was found to be 42%; in data set [2], 50%. Also, the IC50 in [3] turned out to be 6.73 nM.
Turning to `Cc1cc(-c2nc(C)c3sc4cc(OCc5ccc6ccccc6n5)ccc4n23)ccn1`, the remaining at 1 h is 19% in [1] and 5% in data set [2]. Besides, the half-inhibitory concentration (IC50) in data set [3] was determined as 8.73 nM.
For the compound `c1ccc2nc(COc3ccc4c(c3)sc3nnc(-c5ccncc5)n34)ccc2c1`, the IC50 in [3] was 666 nM.
Take `Cc1nc(-c2ccnnc2)n2c1sc1cc(OCc3ccc4ccccc4n3)ccc12`: the remaining at 1 h in data set [1] was determined as 3%; in [2], 30%. Also, the IC50 in [3] came out at 13.9 nM.
Turning to `Cc1nc2sc3cc(OCc4ccc5ccccc5n4)ccc3n2c1-c1ccncc1`, the IC50 in [3] turned out to be 351 nM.
For the compound `Cc1nc(-c2ccncc2)n2c1sc1cc(OCc3ccc4ccccc4n3)ccc12`, the Ratio IC50 in the data set listed under Homo sapiens [7], in the data set listed under Homo sapiens [8], in the data set listed under Homo sapiens [9], in the data set listed under Homo sapiens [10], in the data set filed under Homo sapiens [11] and in the data set listed under Homo sapiens [12] was more than 500 throughout. Besides, the Ratio IC50 in the data set listed under Homo sapiens [13], in the data set filed under Homo sapiens [14] and in the data set listed under Homo sapiens [15] was more than 500 each time. The inhibition in data set [16] stood at 21.4%; in data set [17] it was 22.8%; in data set [18], 0%; in data set [19], 42.3%; in data set [20], 34%; in data set [21], 27.1%. In addition, the inhibition in data set [22] was found to be 26%; in data set [23] it was 67.2%. For the same compound, the remaining at 1 h came to 22% in [1] and 5% in [2]. The IC50 in [3] was found to be 4.85 nM.
For `Cc1nc([C@]23COC[C@H]2C3)n2c1sc1cc(OCc3ccc4ccccc4n3)ccc12`, the Kp at 0.5 h in data set [4] amounted to 1.86. In addition, the concentration at 0.5 h in data set [5] amounted to 394 ng/mL; in [6], 732 ng/g. In addition, the remaining at 1 h in [1] was 70%; in [2], 44%. Besides, in [3], the IC50 was found to be 5.12 nM.
With `Cc1nc([C@@]23COC[C@@H]2C3)n2c1sc1cc(OCc3ccc4ccccc4n3)ccc12`, the Kp at 0.5 h in [4] amounted to 2.62. Besides, the concentration at 0.5 h in [5] was 164 ng/mL; in data set [6] it was 430 ng/g. For the same compound, the remaining at 1 h in data set [1] was found to be 60%; in data set [2], 37%. For the same compound, the IC50 in [3] amounted to 6.88 nM.
`Cc1nc(C2CCOC2)n2c1sc1cc(OCc3ccc4ccccc4n3)ccc12` (configuration not stated): the figures for the remaining at 1 h in [1] and in data set [2] were 37% and 45%, respectively. Besides, the half-inhibitory concentration (IC50) in [3] came to 18.5 nM.
On to `Cc1nc2n(c(=O)c1CCN1CCC(c3noc4cc(F)ccc34)CC1)CCCC2` [RISPERIDONE], for which, in the data set on Rattus norvegicus, the inhibition in vivo at 1 mg/kg was determined as 72%.
On to `Cc1nc(C2CNC2)n2c1sc1cc(OCc3ccc4ccccc4n3)ccc12`, for which the results for the remaining at 1 h in data set [1] and in [2] were 80% and 100%, respectively. Also, the half-maximal inhibitory concentration (IC50) in data set [3] is 157 nM.
For `CC(=O)N1CCC(c2nc(C)c3sc4cc(OCc5ccc6ccccc6n5)ccc4n23)CC1`, in [4], the Kp at 0.5 h was 0.42. The concentration at 0.5 h worked out at 396 ng/mL in data set [5] and 165 ng/g in data set [6]. For the same compound, the results for the remaining at 1 h in data set [1] and in [2] were 48% and 76%, respectively. For the same compound, in [3], the IC50 turned out to be 8.96 nM.

The values above are taken from ChEMBL document CHEMBL3091421, “Discovery of benzo[d]imidazo[5,1-b]thiazole as a new class of phosphodiesterase 10A inhibitors” (Bioorg Med Chem Lett, 2013).
